In patent US6479435B1, “Diaryl ethers and processes for their preparation and herbicidal and desiccant compositions containing them” (ISK Americas Incorporated, priority 1997, dated 2002):

Columns and labels:
Type in all cases: in vivo
[1] = system: sicklepod (Cassia obtusifolia, CASOB); assay: Pre-emerge greenhouse herbicide test, phytotoxicity rating; details: 14 days after application, rating scale 0-100
Summary of the method: (§1)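 Seeds sown in sandy loam mix one day before track-sprayer application of compounds in acetone at 125–1000 g ai/ha (187 l/ha), then surface-watered to incorporate and bottom-watered. Visual rating 14 days after application on a 0–100 scale (0 = no damage, 100 = all plants dead).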

[2] = system: velvetleaf (Abutilon theophrasti, ABUTH); assay: as above; details: 14 days after application, rating scale 0-100
Summary of the method: as §1

[3] = system: lambsquarters (Chenopodium album, CHEAL); assay: as above; details: 14 days after application, rating scale 0-100
Summary of the method: as §1

[4] = system: large crabgrass (Digitaria sanguinalis, DIGSA); assay: as above; details: 14 days after application, rating scale 0-100
Summary of the method: as §1

[5] = system: Johnsongrass (Sorghum halepense, SORHA); assay: as above; details: 14 days after application, rating scale 0-100
Summary of the method: as §1

[6] = system: redroot pigweed (Amaranthus retroflexus, AMARE); assay: as above; details: 14 days after application, rating scale 0-100
Summary of the method: as §1

[7] = system: green foxtail (Setaria viridis, SETVI); assay: as above; details: 14 days after application, rating scale 0-100
Summary of the method: as §1

[8] = system: ivyleaf morningglory (Ipomoea hederacea, IPOHE); assay: as above; details: 14 days after application, rating scale 0-100
Summary of the method: as §1

[9] = system: barnyardgrass (Echinochloa crusgalli, ECHCG); assay: as above; details: 14 days after application, rating scale 0-100
Summary of the method: as §1

[10] = system: field corn (Zea mays L., var. Dekalb 535, CORN); assay: Pre-emerge greenhouse test, crop damage rating; details: 14 days after application, rating scale 0-100
Summary of the method: as §1

[11] = system: upland rice (Oryza sp., var.Tebonnet, RICE); assay: Pre-emerge greenhouse test, crop damage rating; details: 14 days after application, rating scale 0-100
Summary of the method: as §1

[12] = system: field corn (Zea mays L., var. Dekalb 535, CORN); assay: Post-emerge greenhouse test, crop damage rating; details: 14 days after application, scale 0-100
Summary of the method: (§2)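 Compounds in acetone with 0.25% v/v non-ionic surfactant were track-sprayed at 187 l/ha over plants at the 2-3 leaf stage, at 63 to 1000 g ai/ha. Pots were bottom-watered. Injury was scored visually 14 days later on a 0-100 scale, where 0 is no damage and 100 is complete plant death.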

[13] = system: upland rice (Oryza sp., var.Tebonnet, RICE); assay: Post-emerge greenhouse test, crop damage rating; details: 14 days after application, scale 0-100
Summary of the method: as §2

[14] = system: soybean (Glycine max L., var. Pella 86, SOY); assay: Post-emerge greenhouse test, crop damage rating; set-up: key to crop damage rating SOY: 0-100 scale: 0 = no damage, 100 = complete death of all plants; details: 14 days after application, scale 0-100
Summary of the method: as §2

[15] = system: common ragweed (Ambrosia artemisiifolia L., AMBEL); assay: Post-emerge greenhouse herbicide test, phytotoxicity rating; details: 14 days after application, scale 0-100
From the text: A standard greenhouse herbicide activity screening system was used to evaluate the herbicidal efficacy and crop safety of these test compounds. Six broadleaf weed species including redroot pigweed (Amaranthus retroflexus, AMARE), velvetleaf (Abutilon theophrasti, ABUTH), sicklepod (Cassia obtusifolia, CASOB), ivyleaf morningglory (Ipomoea hederacea, IPOHE), lambsquarters (Chenopodium album, CHEAL) and common ragweed (Ambrosia artemisiifolia L., AMBEL) were used as test species. Four grass weed species including green foxtail (Setaria viridis, SETVI), barnyardgrass (Echinochloa crusgalli, ECHCG), Johnsongrass (Sorghum halepense, SORHA), and large crabgrass (Digitaria sanguinalis, DIGSA) were also used. In addition, three crop species, field corn (Zea mays L., var. Dekalb 535, CORN), soybean (Glycine max L., var. Pella 86, SOY), and upland rice (Oryza sp., var.Tebonnet, RICE) were included.
All test compounds were dissolved in acetone and applied to the test units in a volume of 187 l/ha. […] Plants were arranged on a shelf so that the top of the canopy (post-emerge) or top of the soil surface (pre-emerge) was 40-45 cm below the nozzle. Pressurized air was used to force the test solution through the nozzle as it was mechanically advanced (via electrically driven chain drive) over the top of all test plants/pots. This application simulates a typical commercial field herbicide application.
In the post-emerge test, a commercial non-ionic surfactant was also included (0.25% v/v) to enhance wetting of the leaf surfaces Qf target plants at rates ranging from 63 g ai/ha to 1000 g ai/ha. For post-emerge tests, seeds were planted 8-21 days prior to the test to allow emergence and good foliage development prior to application of the test substances. At the time of the post-emerge application, plants of all species were usually at the 2-3 leaf stage of development. Post-emerge test units were always bottom-watered.
At 14 days after application of the test materials, phytotoxicity ratings were recorded. A rating scale of 0-100 was used as previously described in Research Methods in Weed Science, 2nd edition, B. Truelove, Ed., Southern Weed Science Society, Auburn University, Auburn, Ala., 1977. Briefly, “0” corresponds to no damage and “100” corresponds to complete death of all plants in the test unit. This scale was used both to determine efficacy against weed species and damage to crop species. Herbicide activity data for various compounds of this invention, which are shown by compound number in Tables 1-9, are shown in Tables 13 and 14.

[16] = system: sicklepod (Cassia obtusifolia, CASOB); assay: as above; details: 14 days after application, scale 0-100
Summary of the method: as §2

[17] = system: velvetleaf (Abutilon theophrasti, ABUTH); assay: as above; details: 14 days after application, scale 0-100
Summary of the method: as §2

[18] = system: lambsquarters (Chenopodium album, CHEAL); assay: as above; details: 14 days after application, scale 0-100
Summary of the method: as §2

[19] = system: large crabgrass (Digitaria sanguinalis, DIGSA); assay: as above; details: 14 days after application, scale 0-100
Summary of the method: as §2

[20] = system: Johnsongrass (Sorghum halepense, SORHA); assay: as above; details: 14 days after application, scale 0-100
Summary of the method: as §2

[21] = system: redroot pigweed (Amaranthus retroflexus, AMARE); assay: as above; details: 14 days after application, scale 0-100
Summary of the method: as §2

[22] = system: green foxtail (Setaria viridis, SETVI); assay: as above; details: 14 days after application, scale 0-100
Summary of the method: as §2

[23] = system: ivyleaf morningglory (Ipomoea hederacea, IPOHE); assay: as above; details: 14 days after application, scale 0-100
Summary of the method: as §2

[24] = system: barnyardgrass (Echinochloa crusgalli, ECHCG); assay: as above; details: 14 days after application, scale 0-100
Summary of the method: as §2

[25] = system: soybean (Glycine max L., var. Pella 86, SOY); assay: Pre-emerge greenhouse test, crop damage rating; set-up: key to SOY crop damage rating: 0 = no damage, 100 = complete death of all plants; details: 14 days after application, rating scale 0-100
Summary of the method: as §1

CCOC(=O)C(C)Oc1ccc(Oc2cc(-n3c(=O)n4n(c3=S)CCCC4)c(F)cc2Cl)c([N+](=O)[O-])c1 (stereo not drawn) [Compound 8-39]
20: ABUTH phytotoxicity rating ([2]; Rate 125 g al/ha) | RICE crop damage rating ([11]; Rate 250 g al/ha)
40: SETVI phytotoxicity rating ([7]; Rate 250 g al/ha)
60: crop damage rating SOY ([14]; rate 63 g ai/ha) | phytotoxicity rating AMBEL ([15]; rate 63 g ai/ha)
50: phytotoxicity rating CHEAL ([18]; rate 63 g ai/ha)
100: ABUTH phytotoxicity rating ([2]; Rate 250 g al/ha) | CHEAL phytotoxicity rating ([3]; Rate 250 g al/ha) | AMARE phytotoxicity rating ([6]; Rate 125 g al/ha) | AMARE phytotoxicity rating ([6]; Rate 250 g al/ha) | phytotoxicity rating CASOB ([16]; rate 63 g ai/ha) | phytotoxicity rating ABUTH ([17]; rate 63 g ai/ha) | phytotoxicity rating ABUTH ([17]; rate 230 g ai/ha) | phytotoxicity rating IPOHE ([23]; rate 63 g ai/ha)
80: crop damage rating SOY ([14]; rate 230 g ai/ha) | phytotoxicity rating AMBEL ([15]; rate 230 g ai/ha) | phytotoxicity rating AMARE ([21]; rate 230 g ai/ha)
99: CHEAL phytotoxicity rating ([3]; Rate 125 g al/ha)
10: crop damage rating CORN ([12]; rate 230 g ai/ha) | phytotoxicity rating DIGSA ([19]; rate 230 g ai/ha) | phytotoxicity rating SORHA ([20]; rate 230 g ai/ha) | phytotoxicity rating SETVI ([22]; rate 63 g ai/ha) | phytotoxicity rating SETVI ([22]; rate 230 g ai/ha)
90: phytotoxicity rating IPOHE ([23]; rate 230 g ai/ha)
70: phytotoxicity rating CHEAL ([18]; rate 230 g ai/ha) | phytotoxicity rating AMARE ([21]; rate 63 g ai/ha)
0: CASOB phytotoxicity rating ([1]; Rate 250 g al/ha) | DIGSA phytotoxicity rating ([4]; Rate 125 g al/ha) | DIGSA phytotoxicity rating ([4]; Rate 250 g al/ha) | SORHA phytotoxicity rating ([5]; Rate 125 g al/ha) | SORHA phytotoxicity rating ([5]; Rate 250 g al/ha) | SETVI phytotoxicity rating ([7]; Rate 125 g al/ha) | IPOHE phytotoxicity rating ([8]; Rate 125 g al/ha) | IPOHE phytotoxicity rating ([8]; Rate 250 g al/ha) | ECHCG phytotoxicity rating ([9]; Rate 125 g al/ha) | ECHCG phytotoxicity rating ([9]; Rate 250 g al/ha) | CORN crop damage rating ([10]; Rate 125 g al/ha) | CORN crop damage rating ([10]; Rate 250 g al/ha) | phytotoxicity rating DIGSA ([19]; rate 63 g ai/ha) | phytotoxicity rating SORHA ([20]; rate 63 g ai/ha) | phytotoxicity rating ECHCG ([24]; rate 63 g ai/ha) | SOY crop damage rating ([25]; Rate 125 g al/ha) | SOY crop damage rating ([25]; Rate 250 g al/ha)
30: phytotoxicity rating CASOB ([16]; rate 230 g ai/ha) | phytotoxicity rating ECHCG ([24]; rate 230 g ai/ha)
95: CASOB phytotoxicity rating ([1]; Rate 125 g al/ha)
15: crop damage rating CORN ([12]; rate 63 g ai/ha) | crop damage rating RICE ([13]; rate 63 g ai/ha) | crop damage rating RICE ([13]; rate 230 g ai/ha)

CCOC(=O)C(C)Oc1ccc(Oc2cc(-n3c(=O)n4n(c3=S)CCCC4)c(F)cc2Cl)c(N)c1 (stereo not drawn) [Compound 8-40]
30: ABUTH phytotoxicity rating ([2]; Rate 250 g al/ha)
10: crop damage rating CORN ([12]; rate 250 g ai/ha) | phytotoxicity rating SETVI ([22]; rate 250 g ai/ha)
75: phytotoxicity rating CASOB ([16]; rate 250 g ai/ha)
100: CHEAL phytotoxicity rating ([3]; Rate 250 g al/ha) | AMARE phytotoxicity rating ([6]; Rate 250 g al/ha) | phytotoxicity rating ABUTH ([17]; rate 63 g ai/ha) | phytotoxicity rating ABUTH ([17]; rate 250 g ai/ha) | phytotoxicity rating IPOHE ([23]; rate 250 g ai/ha)
0: CASOB phytotoxicity rating ([1]; Rate 125 g al/ha) | DIGSA phytotoxicity rating ([4]; Rate 125 g al/ha) | DIGSA phytotoxicity rating ([4]; Rate 250 g al/ha) | SORHA phytotoxicity rating ([5]; Rate 125 g al/ha) | SORHA phytotoxicity rating ([5]; Rate 250 g al/ha) | SETVI phytotoxicity rating ([7]; Rate 125 g al/ha) | SETVI phytotoxicity rating ([7]; Rate 250 g al/ha) | IPOHE phytotoxicity rating ([8]; Rate 125 g al/ha) | IPOHE phytotoxicity rating ([8]; Rate 250 g al/ha) | ECHCG phytotoxicity rating ([9]; Rate 125 g al/ha) | ECHCG phytotoxicity rating ([9]; Rate 250 g al/ha) | CORN crop damage rating ([10]; Rate 125 g al/ha) | CORN crop damage rating ([10]; Rate 250 g al/ha) | RICE crop damage rating ([11]; Rate 125 g al/ha) | RICE crop damage rating ([11]; Rate 250 g al/ha) | crop damage rating CORN ([12]; rate 63 g ai/ha) | crop damage rating RICE ([13]; rate 63 g ai/ha) | crop damage rating RICE ([13]; rate 250 g ai/ha) | phytotoxicity rating CASOB ([16]; rate 63 g ai/ha) | phytotoxicity rating DIGSA ([19]; rate 63 g ai/ha) | phytotoxicity rating DIGSA ([19]; rate 250 g ai/ha) | phytotoxicity rating SORHA ([20]; rate 63 g ai/ha) | phytotoxicity rating SORHA ([20]; rate 250 g ai/ha) | phytotoxicity rating SETVI ([22]; rate 63 g ai/ha) | phytotoxicity rating ECHCG ([24]; rate 63 g ai/ha) | phytotoxicity rating ECHCG ([24]; rate 250 g ai/ha) | SOY crop damage rating ([25]; Rate 125 g al/ha) | SOY crop damage rating ([25]; Rate 250 g al/ha)
50: ABUTH phytotoxicity rating ([2]; Rate 125 g al/ha) | CHEAL phytotoxicity rating ([3]; Rate 125 g al/ha)
80: crop damage rating SOY ([14]; rate 63 g ai/ha) | phytotoxicity rating AMBEL ([15]; rate 63 g ai/ha) | phytotoxicity rating CHEAL ([18]; rate 250 g ai/ha) | phytotoxicity rating AMARE ([21]; rate 63 g ai/ha)
40: phytotoxicity rating IPOHE ([23]; rate 63 g ai/ha)
90: phytotoxicity rating AMARE ([21]; rate 250 g ai/ha)
60: AMARE phytotoxicity rating ([6]; Rate 125 g al/ha) | crop damage rating SOY ([14]; rate 250 g ai/ha) | phytotoxicity rating CHEAL ([18]; rate 63 g ai/ha)
20: CASOB phytotoxicity rating ([1]; Rate 250 g al/ha) | phytotoxicity rating AMBEL ([15]; rate 250 g ai/ha)
